Experimental data reported in patent US9969823B1, “Synthesis and polymerization of vinyl triazolium ionic liquids” (United States Department of Energy, priority 2011, dated 2018).
Like-named read-outs stand apart in the source and are kept apart here.

Test: Solubility of ionic liquid monomers (IL) and their polymers (PIL) in solvents
Format: physicochemical
Settings: for solubility: 10 mg/ml, IL (monomer), first symbol; for solubility in water: IL monomers
[1] = organic solvent or mixture, ACN, read-out: Solubility (IL/PIL) ACN
[2] = organic solvent or mixture, Acetone, read-out: Solubility (IL/PIL) Acetone
[3] = organic solvent or mixture, DCM, read-out: Solubility (IL/PIL) DCM
[4] = organic solvent or mixture, DMF, read-out: Solubility (IL/PIL) DMF
[5] = organic solvent or mixture, DMSO, read-out: Solubility (IL/PIL) DMSO
[6] = organic solvent or mixture, Ethyl acetate, read-out: Solubility (IL/PIL) Ethyl acetate
[7] = organic solvent or mixture, Hexanes, read-out: Solubility (IL/PIL) Hexanes
[8] = organic solvent or mixture, MeOH, read-out: Solubility (IL/PIL) MeOH
[9] = water, H2O, read-out: Solubility (IL/PIL) H2O

SMILES: C=Cc1cn(CCCCCCCCCC)n[n+]1C [DMVT, 1-Decyl-3-methyl-4-vinyl-triazolium bis(trifluoromethansulfonyl)amide]
- solubility [1]: > 10000 µg/mL
- solubility [2]: > 10000 µg/mL
- solubility [3]: < 10000 µg/mL
- solubility [4]: > 10000 µg/mL
- solubility [5]: > 10000 µg/mL
- solubility [6]: > 10000 µg/mL
- solubility [7]: < 10000 µg/mL
- solubility [8]: > 10000 µg/mL
- solubility [9]: < 10000 µg/mL

SMILES: C=Cc1cn(CCOCCOCCOC)n[n+]1C [TEGMVT, 1-TEG-3-methyl-4-vinyl-triazolium bis(trifluoromethansulfonyl)amide]
- solubility in water (water): soluble
- solubility [1]: > 10000 µg/mL
- solubility [2]: > 10000 µg/mL
- solubility [3]: > 10000 µg/mL
- solubility [4]: > 10000 µg/mL
- solubility [5]: > 10000 µg/mL
- solubility [6]: > 10000 µg/mL
- solubility [7]: < 10000 µg/mL
- solubility [8]: > 10000 µg/mL
- solubility [9]: > 10000 µg/mL

SMILES: C=Cc1cn(CCCCCC)n[n+]1C [HMVT, 1-Hexyl-3-methyl-4-vinyl-triazolium bis(trifluoromethansulfonyl)amide]
- solubility [1]: > 10000 µg/mL
- solubility [2]: > 10000 µg/mL
- solubility [3]: > 10000 µg/mL
- solubility [4]: > 10000 µg/mL
- solubility [5]: > 10000 µg/mL
- solubility [6]: > 10000 µg/mL
- solubility [7]: < 10000 µg/mL
- solubility [8]: > 10000 µg/mL
- solubility [9]: < 10000 µg/mL

SMILES: C=Cc1cn(-c2ccccc2)n[n+]1C [PMVT Tf2N, 1-Phenyl-3-methyl-4-vinyl-triazolium bis(trifluoromethansulfonyl)amide]
- solubility [1]: > 10000 µg/mL
- solubility [2]: > 10000 µg/mL
- solubility [3]: > 10000 µg/mL
- solubility [4]: > 10000 µg/mL
- solubility [5]: > 10000 µg/mL
- solubility [6]: > 10000 µg/mL
- solubility [7]: < 10000 µg/mL
- solubility [8]: > 10000 µg/mL
- solubility [9]: < 10000 µg/mL

SMILES: C=Cc1cn(Cc2ccccc2)n[n+]1C [BMVT Tf2N, 1-Benzyl-3-methyl-4-vinyl-triazolium bis(trifluoromethansulfonyl)amide]
- solubility [1]: > 10000 µg/mL
- solubility [2]: > 10000 µg/mL
- solubility [3]: > 10000 µg/mL
- solubility [4]: > 10000 µg/mL
- solubility [5]: > 10000 µg/mL
- solubility [6]: > 10000 µg/mL
- solubility [7]: < 10000 µg/mL
- solubility [8]: > 10000 µg/mL
- solubility [9]: < 10000 µg/mL

SMILES: C=Cc1cn(CCO)n[n+]1C [EtOHMVT, 2-(3-Methyl-4vinyl-triazolium-1-yl)ethanol bis(trifluoromethansulfonyl)amide]
- solubility in water (water): soluble
- solubility [1]: > 10000 µg/mL
- solubility [2]: > 10000 µg/mL
- solubility [3]: > 10000 µg/mL
- solubility [4]: > 10000 µg/mL
- solubility [5]: > 10000 µg/mL
- solubility [6]: > 10000 µg/mL
- solubility [7]: < 10000 µg/mL
- solubility [8]: > 10000 µg/mL
- solubility [9]: > 10000 µg/mL
